{"source": "ChEMBL document CHEMBL5241086", "about": "“Research progress of indole compounds with potential antidiabetic activity” (Eur J Med Chem, 2021)", "key": {"Homo sapiens": {"species_on_record": "Homo sapiens", "assay": "Inhibition of beta-glucosidase (unknown origin) assessed as residual activity at 100 uM […] incubated for 1 hr followed by substrate addition and measured after 5 mins by spectrophotometer analysis relative to control", "settings": "time 65.0 hrs"}, "Alpha glucosidase [1]": {"target": "T1, Alpha glucosidase (Homo sapiens, UniProt O43451+P10253+P14410+Q2M2H8)", "assay": "Inhibition of alpha glucosidase (unknown origin) using p-nitrophenyl glucopyranoside as substrate by UV Vis- spectrophotometer analysis", "assay_type": "protein assay"}, "[2]": {"target": "Aldo-keto reductase family 1 member B1 (Homo sapiens) (UniProt P15121)", "assay": "Inhibition of Aldose reductase (unknown origin) using DL-Glyceraldehyde as substrate incubated for 5 mins in presence of NADPH by spectrophotometer analysis"}, "Alpha glucosidase [3]": {"target": "T1, Alpha glucosidase", "assay": "Inhibition of alpha glucosidase (unknown origin) using p-nitrophenyl glucopyranoside as substrate by multimode plate reader analysis", "assay_type": "protein assay"}, "[4]": {"target": "T2, Glucose-dependent insulinotropic receptor (Homo sapiens, UniProt Q8TDV5)", "T2 sequence (Q8TDV5 whole entry)": "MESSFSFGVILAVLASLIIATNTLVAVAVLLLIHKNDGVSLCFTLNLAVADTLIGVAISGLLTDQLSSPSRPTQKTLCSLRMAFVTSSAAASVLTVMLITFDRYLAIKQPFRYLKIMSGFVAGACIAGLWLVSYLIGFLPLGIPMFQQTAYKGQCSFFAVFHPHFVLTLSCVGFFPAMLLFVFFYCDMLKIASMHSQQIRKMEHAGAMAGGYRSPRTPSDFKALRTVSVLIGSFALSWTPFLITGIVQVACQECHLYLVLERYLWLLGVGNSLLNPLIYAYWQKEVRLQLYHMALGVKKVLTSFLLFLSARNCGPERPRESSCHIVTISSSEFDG", "assay": "Agonist activity at human GPR119 incubated for 2 hrs by luciferase reporter gene assay"}, "Alpha glucosidase [5]": {"target": "T1, Alpha glucosidase", "assay": "Inhibition of alpha glucosidase (unknown origin) using p-nitrophenyl glucopyranoside as substrate preincubated for 15 mins followed by substrate addition and measured after 30 mins by spectrophotometer analysis", "assay_type": "protein assay"}, "Alpha glucosidase [6]": {"target": "T1, Alpha glucosidase", "assay": "Inhibition of alpha glucosidase (unknown origin) using p-nitrophenyl glucopyranoside as substrate by UV based microplate reader analysis", "assay_type": "protein assay"}, "Mus musculus": {"test_system": "Mus musculus", "assay": "Antidiabetic activity in mouse assessed as reduction in blood glucose level at 100 mg/kg, po bid measured up to 21 days", "assay_type": "functional", "design": "scale not given: the % may be the effect or the level left", "settings": "time <= 21 day"}}, "note": "pEC50: −log10 of the molar value."}
{"smiles": "O=C(N[C@@H](Cc1c[nH]c2ccccc12)C(=O)O)c1cccc(Cl)c1", "values": [{"measurement": "Activity", "setting": "Homo sapiens", "result": 49, "unit": "%"}]}
{"smiles": "Brc1ccc(-c2csc(-n3nc(-c4ccccc4)cc3-c3c[nH]c4ccccc34)n2)cc1", "values": [{"measurement": "IC50", "setting": "Alpha glucosidase [1]", "result": 236.1, "unit": "µg/mL"}]}
{"smiles": "COC(=O)[C@H](Cc1c[nH]c2ccccc12)NC(=O)c1cccc([N+](=O)[O-])c1", "values": [{"measurement": "Activity", "setting": "Homo sapiens", "result": 37, "unit": "%"}]}
{"smiles": "Nc1ccc(-c2cc3ccccc3[nH]2)cc1", "values": [{"measurement": "inhibition", "setting": "[2]", "result": 11, "unit": "%"}]}
{"smiles": "Cc1ccc2c(c1)COC(c1c(C)[nH]c3ccccc13)N2", "note": "(configuration not stated)", "values": [{"measurement": "IC50", "setting": "Alpha glucosidase [3]", "result": 11.5, "unit": "µM"}]}
{"smiles": "CCc1cnc(N2CCC(C(C)COC(=O)N3CCc4cc(S(C)(=O)=O)ccc43)CC2)nc1", "note": "(configuration not stated)", "values": [{"measurement": "pEC50", "setting": "[4]", "result": 8.41}]}
{"smiles": "Clc1ccc2c(c1)NC(c1c[nH]c3ccccc13)OC2", "note": "(configuration not stated)", "values": [{"measurement": "IC50", "setting": "Alpha glucosidase [3]", "result": 11.5, "unit": "µM"}]}
{"smiles": "O=Cc1c(-c2ccccc2)[nH]c2ccccc12", "values": [{"measurement": "inhibition", "setting": "[2]", "result": 7.6, "unit": "%"}]}
{"smiles": "c1ccc2c(c1)COC(c1c[nH]c3ccccc13)N2", "note": "(configuration not stated)", "values": [{"measurement": "IC50", "setting": "Alpha glucosidase [3]", "result": 11.5, "unit": "µM"}]}
{"smiles": "O=[N+]([O-])c1cc(-c2cc3ccccc3[nH]2)ccc1Cl", "values": [{"measurement": "inhibition", "setting": "[2]", "result": 5.3, "unit": "%"}]}
{"smiles": "O=C1Nc2ccccc2C1(c1cn(Cc2ccccc2F)c2ccccc12)c1cn(Cc2ccccc2F)c2ccccc12", "values": [{"measurement": "IC50", "setting": "Alpha glucosidase [5]", "result": 5.98, "unit": "µM"}]}
{"smiles": "Cc1[nH]c2ccccc2c1C1Nc2ccccc2CO1", "note": "(configuration not stated)", "values": [{"measurement": "IC50", "setting": "Alpha glucosidase [3]", "result": 11.5, "unit": "µM"}]}
{"smiles": "Clc1ccc2c(c1)COC(c1c(-c3ccccc3)[nH]c3ccccc13)N2", "note": "(configuration not stated)", "values": [{"measurement": "IC50", "setting": "Alpha glucosidase [3]", "result": 11.5, "unit": "µM"}]}
{"smiles": "Cc1ccnc(NC(=O)CSc2nnc(CCCc3c[nH]c4ccccc34)o2)c1", "values": [{"measurement": "IC50", "setting": "Alpha glucosidase [6]", "result": 9.37, "unit": "µM"}]}
{"smiles": "Cc1cccc(NC(=O)CSc2nnc(CCCc3c[nH]c4ccccc34)o2)c1C", "values": [{"measurement": "IC50", "setting": "Alpha glucosidase [6]", "result": 9.46, "unit": "µM"}]}
{"smiles": "O=C1Nc2ccccc2/C1=N/NC(=S)N/N=C/c1ccc(Cl)cc1", "values": [{"measurement": "Activity", "setting": "Mus musculus", "result": 29.6, "unit": "%"}]}
{"smiles": "Cc1ccc2c(c1)COC(c1c(-c3ccccc3)[nH]c3ccccc13)N2", "note": "(configuration not stated)", "values": [{"measurement": "IC50", "setting": "Alpha glucosidase [3]", "result": 11.5, "unit": "µM"}]}
